Measurements published in BindingDB's records for PubMed 36262403 (Abbvie, 2022).

Biological target: T1, P2X purinoceptor 7 (Rattus norvegicus, UniProt Q64663)
T1 sequence (Q64663 whole entry): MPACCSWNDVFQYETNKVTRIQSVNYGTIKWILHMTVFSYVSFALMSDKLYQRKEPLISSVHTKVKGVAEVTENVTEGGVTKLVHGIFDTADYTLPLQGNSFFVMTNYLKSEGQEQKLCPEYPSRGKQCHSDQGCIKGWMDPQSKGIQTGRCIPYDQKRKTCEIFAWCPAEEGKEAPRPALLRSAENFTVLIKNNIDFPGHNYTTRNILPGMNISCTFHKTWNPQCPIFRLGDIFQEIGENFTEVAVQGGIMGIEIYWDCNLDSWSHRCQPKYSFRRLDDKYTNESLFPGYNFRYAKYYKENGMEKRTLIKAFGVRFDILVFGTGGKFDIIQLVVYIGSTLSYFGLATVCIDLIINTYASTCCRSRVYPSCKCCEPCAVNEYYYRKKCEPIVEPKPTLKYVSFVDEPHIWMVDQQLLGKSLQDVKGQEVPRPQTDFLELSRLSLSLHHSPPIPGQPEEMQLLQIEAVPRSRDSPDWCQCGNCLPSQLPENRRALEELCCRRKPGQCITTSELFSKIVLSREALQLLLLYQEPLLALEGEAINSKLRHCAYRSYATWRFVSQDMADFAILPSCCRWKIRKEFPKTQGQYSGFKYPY
Test: Antagonist activity against rat P2X7R expressed in human 1321N1 cell membrane incubated for 1 hrs by radioligand binding assay

- IC50: 10 nM
SMILES: C[C@H](NC(=Nc1cccc2ncccc12)NC#N)c1ccccc1 [[3H]A-804598]
